Experimental data taken from patent publication US20260191802A1, “DRUG TO TREAT STIMULANT ADDICTION” (SINGLE DOSE THERAPEUTICS, INC., priority 2023, published 2026).

What was measured:
[1] = Aqueous equilibrium solubility, slurry in water, HPLC of supernatant; format: physicochemical; conditions: 24 hours of equilibration at room temperature
[2] = Dynamic Vapor Sorption (DVS) isothermal water sorption and desorption; format: physicochemical; conditions: 25° C. and 80% RH
Protocol: The solubility advantage imparted by a specific salt form of bromantane compared to the free base form cannot be predicted with certainty because the interactions of the counterion with the therapeutic agent and dissolution medium are unique and complex. Empirical testing is necessary. Dynamic Vapor Sorption (DVS) testing was performed to compare the isothermal water sorption and desorption behaviors of bromantane free base Form I [FIG. 22] with that of bromantane hydrochloride Form I [FIG. 23].

[3] = Onset of therapeutic effect after oral administration; format: in vivo; conditions: orally administered
Source text: The objective of the present disclosure is to improve the standard of care in treating mental disorders, such as StUD, by facilitating extinction learning through the administration of a therapeutically effective amount of bromantane or an analogue thereof. While bromantane or an analogue of bromantane can be administered uncompounded, administering a pharmaceutical preparation that ensures consistent absorption and fosters patient adherence to the treatment regimen is advantageous. For example, the onset of therapeutic effect for orally administered crystalline bromantane free base is slow (2-3 hours) due to solubility-limited absorption and high first-pass extraction. Preparations that improve bromantane's solubility or bioavailability to produce a faster onset of therapeutic effect are advantageous for addressing acute incentive salience expeditiously in the treatment of StUD, thereby increasing the likelihood of patient adherence to the treatment regimen and reducing the likelihood of relapse. Accordingly, the present disclosure also provides novel, advantageous pharmaceutical preparations of bromantane and their methods of use.

[4] = tested on: participants who had self-reported drug dependencies to a drug of concern; test: Exploratory study of bromantane intervention in participants with self-reported drug dependencies; format: in vivo, human
Protocol: To investigate the utility of bromantane as a single-agent pharmacological intervention to interrupt stimulant dependence, an exploratory study was conducted with participants who had self-reported drug dependencies to a drug of concern. The intervention consisted of Test Article (bromantane) administered at a dose of 50 mg qd po for 7 days, starting on the first day of Week 1 of the study. Results from the exploratory study are summarized in [FIG. 2]. The number of days the drug of concern was used by the participant during each 1-week period during the 4-week study is shown in the Drug Dependency column.
In addition to being an effective single-agent pharmacological intervention to interrupt stimulant dependence, it was discovered that bromantane has utility as a treatment for certain comorbidities that are specifically underpinned by maladaptive learning, such as occupational burnout exacerbated by conditioned fear responses and attention-deficit/hyperactivity disorder arising from inhibitory control dysfunction. […] Therefore, the present disclosure also provides novel therapeutic methods of use for bromantane to facilitate extinction learning in the treatment of mental disorders or syndromes.

[5] = participants with cocaine or amphetamine dependencies, 50 mg qd po for 7 days, 4-week study

| Structure (SMILES) | equilibrium solubility in water (solution state concentration of bromantane) [1] | hygroscopicity (water gain by DVS) [2] | onset of therapeutic effect [3] [h] | cravings and withdrawal syndrome associated with addiction to stimulants of abuse ([4]; amphetamine, methamphetamine, cocaine) | counterproductive behaviors and thought patterns triggered by conditioned stimuli ([4]; analysis of subjective effects reported by participants) | secondary dependence ([4]; in vivo) | opioid use ([4]; participant with opioid dependence, during the period of intervention, 50 mg qd po for 7 days) | abstinence from drug of concern [4, 5] | duration of maintained abstinence [4, 5] | caffeine use ([4]; participants, 50 mg qd po for 7 days) | insomnia caused by rumination ([4]; self-reported by participants) | temperament (threshold for irritability or anger) ([4]; self-reported by participants) |
| --- | --- | --- | --- | --- | --- | --- | --- | --- | --- | --- | --- | --- |
| Brc1ccc(NC2C3CC4CC(C3)CC2C4)cc1 (stereo not drawn) [bromantane free base Form I] | below the detection limit | non-hygroscopic (x<0.2% w/w gain at 25 °C and 80% RH) | 2 to 3 |  |  |  |  |  |  |  |  |  |
| Brc1ccc(NC2C3CC4CC(C3)CC2C4)cc1 (stereo not drawn) [bromantane] |  |  |  | eliminates or significantly reduces | pronounced reduction | without leading to secondary dependence | reduction in opioid use | achieved abstinence on the first day of intervention | maintain abstinence for approximately three weeks | unplanned reduction in caffeine use | Alleviation of insomnia | improved temperaments |
